# Source: patent publication US20260365677A1, “NEW CONTRAST AGENTS FOR USE IN DIAGNOSTIC IMAGING” (Bayer Aktiengesellschaft, priority 2022, published 2026)
# Key:
# [1] = Partition coefficient (log P butanol/buffer); format: physicochemical; conditions: 50 mM Tris-HCl, pH 7.4, 10 μM, room temperature
# Protocol: The partition coefficient P (log P=log(Cbutanol/Cbuffer)) was determined in buffered aqueous solution (10 μM of compound in 0.5 mL 50 mM Tris-HCl saturated with Butanol, pH 7.4) and 1-butanol 1+1 and the mixture was shaken for 2 h at room temperature (n=3). The Gd-concentrations in each phase. CObutano, and Cbuffer were measured by ICP-MS (The Chemistry of Contrast Agents in Medical Magnetic Resonance Imaging” 2nd Ed. Merbach A S, Helm L, Toth E, eds. Hoboken, NJ: Wiley 2013).
# [2] = system: focal liver lesions; conditions: patients with healthy liver or oncologic/cirrhotic liver patients; cited from earlier work
# [3] = system: dentate nucleus; conditions: after repeated administration; cited from earlier work
# [4] = Exploratory water solubility in 10 mM Tris-HCl buffer, pH 7.4; format: physicochemical; conditions: aqueous buffer (10 mM Tris-HCl), 20 °C
# Protocol: The exploratory water solubility of the compounds is determined at room temperature (20 °C) in 0.5 mL buffer solution (10 mM Tris-HCl, pH 7.4) in the microcentrifuge tubes (Eppendorf, 2.0 mL safe-lock caps). The solid compounds were added stepwise to the buffer solution. More substance is added once all the suspended material is dissolved until an equilibrium between undissolved and dissolved substance is reached. The suspension was mixed using a shaker (Heidolph Reax 2000) and treated 5 min in an ultrasound bath (Bandelin, Sonorex Super RK255H). The Gadolinium concentration of the test substance in the clear solution is measured by ICP-MS.
# [5] = of the administered dose; cited from earlier work
# [6] = system: plasma proteins; conditions: cited from earlier work
# [7] = system: organic anion-transporting polypeptides (OATP1B1, OATP1B3); conditions: via OATP1B1, OATP1B3; cited from earlier work
# [8] = 1.5 T, 37 °C, from Rohrer et al., cited from earlier work; for r1 plasma: bovine plasma instead of human plasma
# [9] = system: multidrug resistance-associated protein 2 (MRP2); conditions: via MRP2 (cMOAT); cited from earlier work
# [10] = Complex stability (transmetallation) with Zn2+ in phosphate buffer; format: physicochemical; conditions: over 72 hours, 2.5 mM Zn^2+, 26 mM phosphate buffer, 37 °C
# Protocol: The used method is described elsewhere (Laurent S et al., Stability of MRI paramagnetic contrast media: a proton relaxometric protocol for transmetallation assessment. Invest Radiol. 2001 February; 36(2):115-22). […] If test compounds are instable under these conditions, transmetallation during this test would lead to the formation of the Zn^2+ complex of the test item, while Gd^3+ is released and precipitated as highly insoluble GdPO4.
# After 3d of incubation T1 relaxation time was observed.
Solubility [4] [mM],SMILES,Log P [1],detection and identification of focal liver lesions by liver MRI [2],signal intensity in the dentate nucleus [3],secretion/excretion into the bile [5],protein binding [6],uptake by hepatocytes [7],r1 plasma [8] [L/mmol/s],r1 water [8] [L/mmol/s],excretion into the bile canaliculi [9],Transmetallation stability (in words) [10]
>250,"CCOc1ccc(CC(CN(CCN(CC(=O)[O-])CC(=O)[O-])CC(=O)[O-])N(CC(=O)[O-])CC(=O)[O-])cc1.[Gd+3].[Na+].[Na+] (centres unmarked) [RC1, gadoxetate disodium]",−2.12,able to detect and identify focal liver lesions with high specificity and sensitivity,increased signal intensity in the dentate nucleus,up to 50%,approximately 10%,"mainly taken up by hepatocytes via organic anion-transporting polypeptides (OATP1B1, OATP1B3)",6.9,4.7,primarily excreted into the bile canaliculi via the multidrug resistance-associated protein 2,
,"O=C([O-])CN1CCN(CC(=O)[O-])CCN([C@H](CO)[C@H](O)CO)CCN(CC(=O)[O-])CC1.[Gd+3] (racemic) [RC3, gadobutrol]",,,,,,,5.2,3.3,,stable
,"O=C([O-])CN(CCN(CC(=O)[O-])CC(=O)[O-])CCN(CC(=O)[O-])C(COCc1ccccc1)C(=O)[O-].[Gd+3].[H+].[H+] (centres unmarked) [RC2, gadobenic acid]",−2.07,,,,approximately 10%,,6.3,4.0,,
